According to patent publication US20230139593A1, “TREATMENT OF DISORDERS ASSOCIATED WITH OXIDATIVE STRESS AND COMPOUNDS FOR SAME” (The University of Adelaide, priority 2020, published 2023):
Where a name gives a salt, the structure may show the parent alone.

What was measured:
NRF2/ARE = NRF2/ARE responsive luciferase reporter assay in HEK293 cells; format: cell-based; settings: 16 h; for NRF2 activity in the presence of H2O2 or ONOO− compared to media control: 10 μM H2O2 or 10 μM ONOO−, 0-100 μM compound; for NRF2 activity relative to MMF: 0-100 μM
Description: (§1) NRF2/ARE responsive luciferase reporter HEK293 cells (Signosis, Santa Clara, USA) were seeded at 1×10^5 cells/well in 48-well plates (Corning, Tewksbury, USA) in supplemented Dulbecco's Modified Eagle Medium (DMEM) containing 4.5 g/L glucose (HyClone, Pittsburgh, USA) (10% fetal bovine serum (FBS) (ThermoFisher Scientific, Waltham, USA) and 1% penicillin/streptomycin (Gibco, Waltham, USA)) and cultured overnight at 37° C., 5% CO2, in a humidified environment. The next morning, the media was replaced with supplemented DMEM (1% FBS (ThermoFisher Scientific) and 1% penicillin/streptomycin (Gibco)). Cells were then treated with a concentration range of each example of compounds described in the invention or monomethyl fumarate (0-100 μM), together with 10 μM hydrogen peroxide (H2O2) (Sigma Aldrich, St Louis, USA), 10 μM peroxynitrite (PN) (Sigma Aldrich), or supplemented media (negative control). tert-Butylhydroquinone (tBHQ; 10 μM) (Sigma-Aldrich) was used as positive control. Each condition was run in triplicate and observations confirmed over at least two additional replications.
After 16 h of incubation with examples of compounds described in the invention and ROS/RNS, cells were washed gently with 500 μL PBS (Sigma-Aldrich) and then incubated in 40 μL passive lysis buffer (Promega, Madison, USA) at room temperature. After 20 mins, 30 μL was transferred from each well to a 96-well clear-bottom, white-wall plate (Corning). Luciferase substrate (Signosis; 150 μL) was added to each well and gently mixed. Luminesence was immediately read on a Synergy HTX multi-mode microplate reader (BioTek, Winooski, USA).
Differences between in vitro concentration-response relationships were determined by comparing the slopes of fitted functions for shared parameters. Linear models were selected as the pharmacologically-relevant concentrations tested were within the linear range of the concentration-response functions. Mechanical allodynia was analyzed as the interpolated 50% thresholds (absolute threshold). One-way ANOVA was used to confirm that there were no baseline differences in absolute thresholds or dynamic scores between treatment groups. Differences between treatment groups for behavior were determined using repeated measures two-way ANOVA, followed by Tukey's or Sidaks post hoc tests. Biochemical data were analyzed by one- or two-way ANOVA, followed by Tukey's post hoc tests. Results are expressed as mean±standard deviation (SD). P<0.05 was considered statistically significant.

[1] = tested on: spared nerve injury (SNI) model of neuropathic pain; test: Dynamic allodynia (paintbrush stroking) after spared nerve injury; format: in vivo; settings: 350 μmol/kg oral, daily for 3 days, SNI mice, ipsilateral paw
Description: Pathogen-free adult male and female C57BL/6J mice (8 weeks old on arrival; The Jackson Laboratory, Bar Harbor, USA) were used. Mice were housed five per cage in a light- and temperature-controlled room (12:12-h light-dark cycle, light on at 7:00 AM) with food and water available ad libitum. All procedures were approved by the MD Anderson Cancer Center Animal Care and Use Committee. SNI was performed under inhaled isoflurane anesthesia. The tibial and common peroneal nerves were isolated, tightly ligated with 6-0 silk, and transected immediately distal to the ligation. The sural nerve was left intact. Animals were monitored post-operatively until fully ambulatory prior to return to their home cage. […] Dynamic mechanical hypersensitivity was measured by light stroking (velocity is 2 cm/s) of the external lateral side of the injured hind paw in the direction from heel to toe with a paintbrush. The paw withdrawal response was scored according to the following criteria, score=0: walking away or occasionally very brief paw lifting […]; score=1: sustained lifting (>2 s) of the stimulated paw toward the body; score=2: a strong lateral lifting above the level of the body; score=3: flinching or licking of the affected paw. […] Differences between in vitro concentration-response relationships were determined by comparing the slopes of fitted functions for shared parameters. […]

leukocytes = test: Absolute leukocyte count in naive mice; format: in vivo; settings: 350 μmol/kg oral, daily for 10 days
Description: Compounds were suspended with methylcellulose (viscosity 15 cP, 2% w/v in water;) and administered by oral gavage. For SNI anti-nociception, compounds were administered for 3 days (350 μmol/kg/day), beginning 7 days after SNI, and continuing for 3 (reflex tests) or 7 days (conditioned place preference tests). For leukopenia assessment, compounds were administered to naïve mice for 10 days (350 μmol/kg/day). Equivolume methylcellulose (2% w/v) was used as vehicle control for all compounds. An independent investigator dosed the mice in order to maintain blinding to treatment groups for the other investigators who performed the behavioral testing.
Leukocytes from cardiac blood were stained with Turk's solution according to manufacturer instructions, and manually counted on a hemocytometer by an experimenter who was blinded to treatment conditions.

[2] = tested on: NRF2/ARE luciferase reporter HEK293 cells; test: Cytotoxicity in the reporter cell assay; format: cell-based
Description: as §1

[3] = tested on: spared nerve injury (SNI) model of neuropathic pain; test: Tactile allodynia (von Frey test) after spared nerve injury; format: in vivo, mice; settings: for tactile allodynia: 350 μmol/kg oral, daily for 3 days, SNI mice, ipsilateral paw
Description: Pathogen-free adult male and female C57BL/6J mice (8 weeks old on arrival; The Jackson Laboratory, Bar Harbor, USA) were used. Mice were housed five per cage in a light- and temperature-controlled room (12:12-h light-dark cycle, light on at 7:00 AM) with food and water available ad libitum. All procedures were approved by the MD Anderson Cancer Center Animal Care and Use Committee. SNI was performed under inhaled isoflurane anesthesia. The tibial and common peroneal nerves were isolated, tightly ligated with 6-0 silk, and transected immediately distal to the ligation. The sural nerve was left intact. Animals were monitored post-operatively until fully ambulatory prior to return to their home cage. Compounds were suspended with methylcellulose (viscosity 15 cP, 2% w/v in water;) and administered by oral gavage. For SNI anti-nociception, compounds were administered for 3 days (350 μmol/kg/day), beginning 7 days after SNI, and continuing for 3 (reflex tests) or 7 days (conditioned place preference tests). For leukopenia assessment, compounds were administered to naïve mice for 10 days (350 μmol/kg/day). Equivolume methylcellulose (2% w/v) was used as vehicle control for all compounds. An independent investigator dosed the mice in order to maintain blinding to treatment groups for the other investigators who performed the behavioral testing. Testing was conducted blind with respect to group assignment. […] Tactile allodynia was measured using the von Frey test. The 50% paw withdrawal threshold was determined using the “up-down” method. Differences between in vitro concentration-response relationships were determined by comparing the slopes of fitted functions for shared parameters. […] Mechanical allodynia was analyzed as the interpolated 50% thresholds (absolute threshold). […] Differences between treatment groups for behavior were determined using repeated measures two-way ANOVA, followed by Tukey's or […] post hoc tests. Biochemical data were analyzed by one- or two-way ANOVA, followed by Tukey's post hoc tests. Results are expressed as mean±standard deviation (SD). […]

[4] = tested on: spared nerve injury (SNI) model of neuropathic pain; test: Conditioned place preference assay (spontaneous pain) after spared nerve injury; format: in vivo; settings: 350 μmol/kg oral, daily for 7 days, nerve-injured mice
Description: Pathogen-free adult male and female C57BL/6J mice (8 weeks old on arrival; The Jackson Laboratory, Bar Harbor, USA) were used. Mice were housed five per cage in a light- and temperature-controlled room (12:12-h light-dark cycle, light on at 7:00 AM) with food and water available ad libitum. All procedures were approved by the MD Anderson Cancer Center Animal Care and Use Committee. SNI was performed under inhaled isoflurane anesthesia. The tibial and common peroneal nerves were isolated, tightly ligated with 6-0 silk, and transected immediately distal to the ligation. The sural nerve was left intact. Animals were monitored post-operatively until fully ambulatory prior to return to their home cage. Compounds were suspended with methylcellulose (viscosity 15 cP, 2% w/v in water;) and administered by oral gavage. For SNI anti-nociception, compounds were administered for 3 days (350 μmol/kg/day), beginning 7 days after SNI, and continuing for 3 (reflex tests) or 7 days (conditioned place preference tests). For leukopenia assessment, compounds were administered to naïve mice for 10 days (350 μmol/kg/day). Equivolume methylcellulose (2% w/v) was used as vehicle control for all compounds. An independent investigator dosed the mice in order to maintain blinding to treatment groups for the other investigators who performed the behavioral testing. […] The time spent in the light chamber was recorded. […]

[5] = measured, Arch Dermatol Res. 2010, 302(7), 531-8; cited from earlier work

Structure (SMILES)	NRF2 activity in the presence of H2O2 or ONOO− compared to media control (NRF2/ARE)	dynamic allodynia [1]	tactile allodynia [3]	spontaneous pain: preference for the retigabine-paired light chamber [4]	NRF2 activity relative to MMF (NRF2/ARE)	further results
COC(=O)/C=C/C(=O)C(=O)OC [Example A, 1,5-dimethyl (2E)-4-oxopent-2-enedioate]	increased NRF2 activity in the presence of H2O2 or ONOO^−	reversed	reversed	did not develop a preference for the retigabine-paired light chamber		absolute leukocyte count (leukocytes): did not cause a decline in absolute leukocyte count; toxicity in the concentration range tested ([2]; 0-100 μM): no toxicity in the concentration range tested; efficacy on tactile and dynamic allodynia relative to diroximel fumarate ([3]; 350 μmol/kg oral each, 3 days, both measures): greater efficacy than diroximel fumarate
COC(=O)/C=C/C(=O)C(=O)NCc1ccccc1 [Example C, methyl (2E)-4-(benzylcarbamoyl)-4-oxobut-2-enoate]	did not selectively increase NRF2 activity				activated NRF2 to a greater extent than MMF	cytotoxic concentration [2]: above 50 μM
COC(=O)/C=C/C(=O)C(=O)c1ccccc1 [Example D, methyl (2E)-4,5-dioxo-5-phenylpent-2-enoate]	increased NRF2 activity in the presence of H2O2 or ONOO^−				at lower levels than MMF	
COC(=O)/C=C/C(=O)C(=O)O [Example J, (3E)-5-methoxy-2,5-dioxopent-3-enoic acid]		reversed	reversed			
COC(=O)/C=C/C(=O)O [MMF, monomethyl fumarate]						pKa [5]: 3.63
COC(=O)/C=C/C(=O)OCCN1C(=O)CCC1=O [diroximel fumarate, reference compound]				did not develop a preference for the retigabine-paired light chamber		
